Measured values published in patent US20240043435A1, “TYK-2 INHIBITOR” (BEIGENE, LTD., priority 2020, published 2024).

Legend:
[1] = target: T1, TYK2-JH2 (aa 575-869, in-house) protein (Homo sapiens, UniProt P29597); test: TYK2-JH2 biochemical assay (HTRF probe displacement); assay type: binding; details: Biochemical assay; read-out: TYK2-JH2 IC50
T1 construct: TYK2-JH2 (aa 575-869, in-house) protein; made in house
Method in brief: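 HTRF probe-displacement format: compound dilutions (10 points, 5-fold, from 500 uM in DMSO at 500×) were combined with 0.2 nM TYK2-JH2 protein for 0.5 h at room temperature in HEPES pH 7.5 buffer with MgCl2, BSA, DTT and Brij-35. Percent inhibition came from the 615/665 nm fluorescence ratio, fitted to a four-parameter logistic for IC50.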

[2] = tested on: JAK2, TYK2/p-STAT4 (Tyr693) activated by IL-12 in NK-92 cell line; test: IL-12-JAK2, TYK2/p-STAT4 (Tyr693) inhibition IC50 cellular assay; assay type: cell-based; details: for Selectivity fold (TYK2/JAK2): Cellular assay, pSTAT5/GM-CSF IC50 vs pSTAT4/IL-12 IC50; for IC50: NK92, Cellular assay, read-out: pSTAT4/IL-12 IC50
Method in brief: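 p-STAT4 (Tyr693) in lysates was measured by AlphaLISA SureFire Ultra after a 30 min IL-12 challenge (40 ng/ml final) at 37° C. Overnight-starved, IL-2-free NK-92 cells had been pretreated 1 h with compound at 10000 to 0.61 nM (4-fold, 8 points). IC50 values came from four-parameter logistic fitting.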

pSTAT5/GM-CSF = pSTAT5/GM-CSF cellular assay (JAK2 selectivity); assay type: cell-based; details: for Selectivity fold (TYK2/JAK2): pSTAT5/GM-CSF IC50 over pSTAT4/IL-12 IC50

T1 sequence (P29597 575-869): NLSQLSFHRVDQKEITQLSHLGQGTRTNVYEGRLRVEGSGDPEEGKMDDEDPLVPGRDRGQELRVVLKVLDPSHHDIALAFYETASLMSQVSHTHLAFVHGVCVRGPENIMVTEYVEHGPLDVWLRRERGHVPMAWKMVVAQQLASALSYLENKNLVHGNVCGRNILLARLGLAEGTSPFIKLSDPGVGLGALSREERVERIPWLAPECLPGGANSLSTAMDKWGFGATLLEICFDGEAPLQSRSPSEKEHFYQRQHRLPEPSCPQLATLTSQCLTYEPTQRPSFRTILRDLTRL

SMILES | IC50 [1] [nM] | Selectivity fold (TYK2/JAK2) [2] [fold] | IC50 [2] [nM] | IC50 (pSTAT5/GM-CSF) [nM] | Selectivity fold (TYK2/JAK2) (pSTAT5/GM-CSF) [fold]
CC(=O)Nc1cc(Nc2cc(O[C@H]3C[C@@H](O)C3)cc(S(C)(=O)=O)n2)c(-c2ccc(C(C)(C)O)cn2)cn1 [Example H28, N-(4′-((4-(cis-3-hydroxycyclobutoxy)-6-(methylsulfonyl)pyridin-2-yl)amino)-5-(2-hydroxypropan-2-yl)-[2,3′-bipyridin]-6′-yl)acetamide] | 0.03 | >342 | 29.2 | > 10000 | –
COC1CC(Oc2cc(Nc3cc(NC(C)=O)ncc3-c3ccc(C(C)(C)O)cn3)nc(S(C)(=O)=O)c2)C1 (centres unmarked) [Example H29, N-(5-(2-hydroxypropan-2-yl)-4′-((4-(3-methoxycyclobutoxy)-6-(methylsulfonyl)pyridin-2-yl)amino)-[2,3′-bipyridin]-6′-yl)acetamide] | 0.022 | 4797 | 1.77 | 8490 | –
CC(=O)Nc1cc(Nc2cc(OCC3CC3)cc(S(C)(=O)=O)n2)c(-c2ccc(C(C)(C)O)cn2)cn1 [Example H30, N-(4′-((4-(cyclopropylmethoxy)-6-(methylsulfonyl)pyridin-2-yl)amino)-5-(2-hydroxypropan-2-yl)-[2,3′-bipyridin]-6′-yl)acetamide] | 0.023 | >10288 | 0.972 | > 10000 | –
CC(=O)Nc1cc(Nc2cc(OC3CCC3)cc(S(C)(=O)=O)n2)c(-c2ccc(C(C)(C)O)cn2)cn1 [Example H31, N-(4′-((4-cyclobutoxy-6-(methylsulfonyl)pyridin-2-yl)amino)-5-(2-hydroxypropan-2-yl)-[2,3′-bipyridin]-6′-yl)acetamide] | 0.023 | >10695 | 0.935 | > 10000 | –
CC(=O)Nc1cc(Nc2nc(S(C)(=O)=O)ccc2C)c(-c2ccc(C(C)(C)O)cn2)cn1 [Example H32, N-(5-(2-hydroxypropan-2-yl)-4′-((3-methyl-6-(methylsulfonyl)pyridin-2-yl)amino)-[2,3′-bipyridin]-6′-yl)acetamide] | 0.023 | >22371 | 0.447 | > 10000 | –
CCOc1cc(Nc2cc(NC(C)=O)ncc2-c2ccc(C(C)(C)O)cn2)nc(S(C)(=O)=O)c1 [Example H33, N-(4′-((4-ethoxy-6-(methylsulfonyl)pyridin-2-yl)amino)-5-(2-hydroxypropan-2-yl)-[2,3′-bipyridin]-6′-yl)acetamide] | 0.019 | >22371 | 0.777 | > 10000 | –
CC(=O)Nc1cc(Nc2ccc(F)c(S(C)(=O)=O)n2)c(-c2ccc(C(C)(C)O)cn2)cn1 [Example H34, N-(4′-((5-fluoro-6-(methylsulfonyl)pyridin-2-yl)amino)-5-(2-hydroxypropan-2-yl)-[2,3′-bipyridin]-6′-yl)acetamide] | 0.023 | >8928 | 1.12 | > 10000 | –
CC(=O)Nc1cc(Nc2cc(S(C)(=O)=O)ccc2C)c(-c2ccc(C(C)(C)O)cn2)cn1 [Example H35, N-(5-(2-hydroxypropan-2-yl)-4′-((2-methyl-5-(methylsulfonyl)phenyl)amino)-[2,3′-bipyridin]-6′-yl)acetamide] | 0.028 | >3154 | 3.17 | > 10000 | –
CCS(=O)(=O)c1cc(OC(C)C)cc(Nc2cc(NC(C)=O)ncc2-c2ccc(C(C)(C)O)cn2)n1 [Example H36, N-(4′-((6-(ethylsulfonyl)-4-isopropoxypyridin-2-yl)amino)-5-(2-hydroxypropan-2-yl)-[2,3′-bipyridin]-6′-yl)acetamide] | 0.022 | >5128 | 1.95 | > 10000 | –
CC(=O)Nc1cc(Nc2cc(OC(C)C)cc(S(C)(=O)=O)n2)c(-c2ccn(C)n2)cn1 [Example J2, N-(4-((4-isopropoxy-6-(methylsulfonyl)pyridin-2-yl)amino)-5-(1-methyl-1H-pyrazol-3-yl)pyridin-2-yl)acetamide] | 0.022 | – | 3 | > 10000 | >3333
CC(=O)Nc1cc(Nc2cc(OCC3CC3)cc(S(C)(=O)=O)n2)c(-c2ccn(C)n2)cn1 [Example J3, N-(4-((4-(cyclopropylmethoxy)-6-(methylsulfonyl)pyridin-2-yl)amino)-5-(1-methyl-1H-pyrazol-3-yl)pyridin-2-yl)acetamide] | 0.026 | – | 0.286 | > 10000 | >34965
CC(=O)Nc1cc(Nc2cccc(S(N)(=O)=O)n2)c(-c2ccn(C)n2)cn1 [Example J4, N-(5-(1-methyl-1H-pyrazol-3-yl)-4-((6-sulfamoylpyridin-2-yl)amino)pyridin-2-yl)acetamide] | 0.028 | – | 4.94 | > 10000 | >2024
CCS(=O)(=O)c1cccc(Nc2cc(NC(C)=O)ncc2-c2ccn(C)n2)n1 [Example J5, N-(4-((6-(ethylsulfonyl)pyridin-2-yl)amino)-5-(1-methyl-1H-pyrazol-3-yl)pyridin-2-yl)acetamide] | 0.022 | – | 2.05 | > 10000 | >4878
CC(=O)Nc1cc(Nc2cccc(S(C)(=O)=O)c2)c(-c2ccn(C)n2)cn1 [Example J6, N-(5-(1-methyl-1H-pyrazol-3-yl)-4-((3-(methylsulfonyl)phenyl)amino)pyridin-2-yl)acetamide] | 0.033 | – | 7.94 | > 10000 | >1259
CC(=O)Nc1cc(Nc2cc(C#N)cc(S(C)(=O)=O)c2)c(-c2ccn(C)n2)cn1 [Example J7, N-(4-((3-cyano-5-(methylsulfonyl)phenyl)amino)-5-(1-methyl-1H-pyrazol-3-yl)pyridin-2-yl)acetamide] | 0.19 | – | 66.2 | > 10000 | >150
CC(=O)Nc1cc(Nc2cc(C)cc(S(C)(=O)=O)c2)c(-c2ccn(C)n2)cn1 [Example J8, N-(5-(1-methyl-1H-pyrazol-3-yl)-4-((3-methyl-5-(methylsulfonyl)phenyl)amino)pyridin-2-yl)acetamide] | 0.073 | – | 7.67 | > 10000 | >1303
COc1cc(Nc2cc(NC(C)=O)ncc2-c2ccn(C)n2)cc(S(C)(=O)=O)c1 [Example J9, N-(4-((3-methoxy-5-(methylsulfonyl)phenyl)amino)-5-(1-methyl-1H-pyrazol-3-yl)pyridin-2-yl)acetamide] | 0.083 | – | 6.54 | > 10000 | >1529
CC(=O)Nc1cc(Nc2cc(OC(F)(F)F)cc(S(C)(=O)=O)c2)c(-c2ccn(C)n2)cn1 [Example J10, N-(5-(1-methyl-1H-pyrazol-3-yl)-4-((3-(methylsulfonyl)-5-(trifluoromethoxy)phe-nyl)amino)pyridin-2-yl)acetamide] | 0.05 | – | 6.34 | > 10000 | >1577
CC(=O)Nc1cc(Nc2cccc(S(C)(=O)=O)n2)c(-c2ccn(C)n2)cn1 [Example J11, N-(5-(1-methyl-1H-pyrazol-3-yl)-4-((6-(methylsulfonyl)pyridin-2-yl)amino)pyridin-2-yl)actamide] | 0.017 | – | 0.275 | 6420 | 23327
COCCOc1cc(Nc2cc(NC(C)=O)ncc2-c2ccn(C)n2)nc(S(C)(=O)=O)c1 [Example J12, N-(4-((4-(2-methoxyethoxy)-6-(methylsulfonyl)pyridin-2-yl)amino)-5-(1-methyl-1H-pyrazol-3-yl)pyridin-2-yl)acetamide] | 0.017 | – | 0.847 | > 10000 | >11806
COC(C)COc1cc(Nc2cc(NC(C)=O)ncc2-c2ccn(C)n2)nc(S(C)(=O)=O)c1 (centres unmarked) [Example J13, N-(4-((4-(2-methoxypropoxy)-6-(methylsulfonyl)pyridin-2-yl)amino)-5-(1-methyl-1H-pyrazol-3-yl)pyridin-2-yl)acetamide] | 0.054 | – | 1.18 | > 10000 | >8474
CO[C@H](C)COc1cc(Nc2cc(NC(C)=O)ncc2-c2ccn(C)n2)nc(S(C)(=O)=O)c1 [Example J14, (R)-N-(4-((4-(2-methoxypropoxy)-6-(methylsulfonyl)pyridin-2-yl)amino)-5-(1-methyl-1H-pyrazol-3-yl)pyridin-2-yl)acetamide] | 0.033 | – | 0.792 | > 10000 | >12626
CC(=O)Nc1cc(Nc2cc(OCCO)cc(S(C)(=O)=O)n2)c(-c2ccn(C)n2)cn1 [Example J15, N-(4-((4-(2-hydroxyethoxy)-6-(methylsulfonyl)pyridin-2-yl)amino)-5-(1-methyl-1H-pyrazol-3-yl)pyridin-2-yl)acetamide] | 0.016 | – | 5.9 | > 10000 | >1694
